Experimental findings from patent publication US8404691B2, “Imidazothiazole derivatives having proline ring structure” (Daiichi Sankyo Company, Limited, priority 2009, dated 2013) are described below.

Series [1] can be described thus: Metabolic stability test (microsomal metabolism). Note: tested at 1.1 µM. The class given is in vitro ADME. The following applies: human liver microsomes, 37° C., 30 minutes after addition of NADP+. Here is the method: 100 μL of 100 mM phosphate buffer solution (pH 7.4) containing 3 μM test compound was added to 100 μL of reaction solution containing 100 mM phosphate buffer solution (pH 7.4), 30 mM glucose 6-phosphate, 10 mM MgCl2.6H2O, 3 units/mL glucose 6-phosphate 1-dehydrogenase, and 0.3 to 1.5 mgP/mL human liver microsomes and the mixture was incubated at 37° C. for 20 minutes. Then, 70 μL of 100 mM phosphate buffer solution (pH 7.4) containing 3 mM NADP+ was added and the mixture was further incubated at 37° C. for 30 minutes to conduct a microsomal metabolism test. The compound was quantified by the internal standard method using a quadrupole mass spectrometer connected to a high performance liquid chromatography apparatus. The metabolic stability (residual percentage of compound: MS %) was determined according to the following formula: MS(human)(%)=(peak area ratio of test compound after addition of NADP+ and incubation for 30 minutes)/(peak area ratio of test compound before addition of NADP+)×100.
(peak area ratio: peak area of test compound divided by that of internal standard substance)
(In general: Liver microsomes are a subcellular fraction often used to study metabolism.)

In a further series the target is T1, Mdm2/p53 binding (Homo sapiens, UniProt Q00987, L33E).
T1 construct: Mdm2 amino acids at positions 25 to 108
Kind of series: Mdm2/p53 binding assay (HTRF, His-p53 and GST-Mdm2). The conditions noted are these: His-p53 (aa 1-132) and GST-Mdm2 (aa 25-108, L33E), 6.25 nM each, 25° C. for 1 hour. As for the experimental part:
Next, a test compound was diluted with DMSO to produce protein buffer solution containing 10% dilution, and this buffer solution was added in an amount of 4 μL/well to the plate.
These dilutions were added in an amount of 8 μL/well (total reaction solution volume: 20 μl/well). Then, the plate was left at 25° C. for 1 hour.
The R value calculated from the well supplemented with His-p53, GST-Mdm2, the test compound, and each antibody was defined as R (sample). The R value calculated from the well supplemented with His-p53, GST-Mdm2, and each antibody but without the test compound was defined as R (control). The R value calculated from the well supplemented with GST-Mdm2, the test compound, and each antibody but without His-p53 was defined as R (background). T/C was calculated from the formula shown below. An IC50 value for Mdm2/p53 binding was calculated by sigmoid fitting. T/C=(R(sample)−R(background))/(R(control)−R(background))
For orientation: Time-resolved FRET reads energy transfer from a long-lived donor to a nearby acceptor.

In series [2] the test system is human lung cancer-derived cell line NCI-H460 having wild-type p53. Kind of series: Cell growth inhibition assay (MTT). In kind it is cell-based. The following applies: 72 h, NCI-H460 cells, culturing 3 days, read-out: anti-cellular effect GI50 (50% growth inhibition concentration). As for the experimental part:
A cell growth inhibition assay was conducted using human lung cancer-derived cell line NCI-H460 having wild-type p53.
NCI-H460 cells were suspended in a medium (RPMI1640 medium containing 10% fetal bovine serum) and the suspension was inoculated in an amount of 500 cells/150 μL/well to a 96-well multiwell plate. A test compound was dissolved in DMSO and this solution was diluted with medium to prepare a sample solution (DMSO concentration: 1% or lower). On the next day of inoculation, medium nonsupplemented with the test compound or the sample solution was added in an amount of 50 μL/well. The MTT assay was conducted immediately after the medium was added in an amount of 50 μL on the next day of cell inoculation, and after the sample solution or the medium was added to cells followed by culturing at 37° C. for 3 days in a 5% CO2 atmosphere. The MTT assay was conducted as shown below.
A 5 mg/mL MTT (3-(4,5-dimethylthiazol-2-yl)-2,5-diphenyltetrazolium bromide, Sigma-Aldrich Co., M-2128) solution was prepared using a phosphate buffer solution (Dulbecco's Phosphate-buffered Saline). This MTT solution was added in an amount of 20 μL/well. Then, the plate was cultured at 37° C. for 4 hours in a 5% CO2 atmosphere. The plate was centrifuged at 1200 rpm for 5 minutes and then the culture supernatant was removed by aspiration using a dispenser. DMSO was added in an amount of 150 μL/well to dissolve generated formazan. The plate was stirred using a plate mixer for uniform color development from each well. The absorbance of each well was measured under conditions of OD 540 nm and reference 660 nm using a plate reader (SpectraMax PLUS384, Molecular Devices, CA, USA).
The OD value measured on the day of adding the sample solution was defined as S. The OD value measured three days after addition of the sample solution was defined as T. The OD value measured three days after addition of the DMSO dilution was defined as C. T/C (%) was determined at each concentration according to the calculation formula shown below to prepare a dose response curve, from which 50% growth inhibition concentration (GI50 value) was calculated. T/C(%)=(T−S)/(C−S)×100

SMILES strings stand for the structures.

T1 sequence (Q00987 25-108 L33E): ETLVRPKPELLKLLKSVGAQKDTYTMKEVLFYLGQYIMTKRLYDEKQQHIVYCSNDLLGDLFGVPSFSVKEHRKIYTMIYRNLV

In general, IC50 refers to the midpoint of a concentration-inhibition curve. Lower therefore signals greater potency. As to `CC(C)C1=C(C(=O)N2C[C@H](F)C[C@H]2C(=O)N2CC3(CC3)NC[C@@H]2C)SC2=N[C@@](C)(c3ccc(Cl)cc3)[C@@H](c3ccc(Cl)cc3)N21` [Example 19], in series [1], the “MS (human) % (metabolic stability, residual percentage of compound)” value amounted to 93%. This compound had a half-maximal inhibitory concentration (IC50) at Mdm2/p53 binding of 1.6 nM. In series [2], the GI50 was < 400 nM.
On to `CC(C)C1=C(C(=O)N2C[C@H](F)C[C@H]2C(=O)N2CC3(CC3)NC[C@H]2C)SC2=N[C@@](C)(c3ccc(Cl)nc3)[C@@H](c3ccc(Cl)cc3)N21` [Example 28], for which the “MS (human) % (metabolic stability, residual percentage of compound)” value in series [1] amounted to 51%. This compound also yielded a half-maximal inhibitory concentration (IC50) on Mdm2/p53 binding of 3.1 nM. In addition, in series [2], the GI50 lay within 400 to 2500 nM.
As to `CC(C)C1=C(C(=O)N2CC(F)(F)C[C@H]2C(=O)N2CC3(CC3)NC[C@H]2C)SC2=N[C@@](C)(c3ccc(Cl)nc3)[C@@H](c3ccc(Cl)c(F)c3)N21` [Example 10, (6R)-7-(1-{[(5R,6S)-5-(4-chloro-3-fluorophenyl)-6-(6-chloropyridin-3-yl)-3-isopropyl-6-methyl-5,6-dihydroimidazo[2,1-b][1,3]thiazol-2-yl]carbonyl}-4,4-difluoro-L-prolyl)-6-methyl-4,7-diazaspiro[2.5]octane], in series [1], the “MS (human) % (metabolic stability, residual percentage of compound)” value came to 48%. The IC50 at Mdm2/p53 binding was determined as 14 nM. For the same compound, in series [2], the GI50 was < 400 nM.
With `CC(C)C1=C(C(=O)N2C[C@H](F)C[C@H]2C(=O)N2CC3(CC3)NC[C@@H]2CO)SC2=N[C@@](C)(c3ccc(Cl)nc3)[C@@H](c3ccc(Cl)c(F)c3)N21` [Example 11, {(6R)-7-[(4R)-1-{[(5R,6S)-5-(4-chloro-3-fluorophenyl)-6-(6-chloropyridin-3-yl)-3-isopropyl-6-methyl-5,6-dihydroimidazo[2,1-b][1,3]thiazol-2-yl]carbonyl}-4-fluoro-L-prolyl]-4,7-diazaspiro[2.5]oct-6-yl}methanol], the “MS (human) % (metabolic stability, residual percentage of compound)” value in series [1] was found to be 100%. At Mdm2/p53 binding, this compound returned an IC50 of 3.2 nM. Besides, the GI50 in series [2] lay in the range of 400 to 2500 nM.
Turning to `CC(C)C1=C(C(=O)N2CC(F)(F)C[C@H]2C(=O)N2CC3(CC3)NC[C@@H]2C)SC2=N[C@@](C)(c3ccc(Cl)nc3)[C@@H](c3ccc(Cl)c(F)c3)N21` [Example 9, (6S)-7-(1-{[(5R,6S)-5-(4-chloro-3-fluorophenyl)-6-(6-chloropyridin-3-yl)-3-isopropyl-6-methyl-5,6-dihydroimidazo[2,1-b][1,3]thiazol-2-yl]carbonyl}-4,4-difluoro-L-prolyl)-6-methyl-4,7-diazaspiro[2.5]octane], in series [1], the “MS (human) % (metabolic stability, residual percentage of compound)” value was determined as 80%. This compound also registered an IC50 on Mdm2/p53 binding of 4.1 nM. The GI50 in series [2] was < 400 nM.
In the case of `CC(C)C1=C(C(=O)N2C[C@H](F)C[C@H]2C(=O)N2CCNC3(CC3)C2)SC2=N[C@@](C)(c3ccc(Cl)cc3)[C@@H](c3ccc(Cl)c(F)c3)N21` [Example 23], the “MS (human) % (metabolic stability, residual percentage of compound)” value in series [1] is given as 24%. In addition, the IC50 on Mdm2/p53 binding was determined as 1.6 nM. In addition, in series [2], the GI50 was < 400 nM.
On to `CC(C)C[C@@H]1CNC2(CC2)CN1C(=O)[C@@H]1C[C@@H](F)CN1C(=O)C1=C(C(C)C)N2C(=N[C@@](C)(c3ccc(Cl)nc3)[C@H]2c2ccc(Cl)c(F)c2)S1` [Example 7, (6R)-7-[(4R)-1-{[(5R,6S)-5-(4-chloro-3-fluorophenyl)-6-(6-chloropyridin-3-yl)-3-isopropyl-6-methyl-5,6-dihydroimidazo[2,1-b][1,3]thiazol-2-yl]carbonyl}-4-fluoro-L-prolyl]-6-isobutyl-4,7-diazaspiro[2.5]octane], for which the “MS (human) % (metabolic stability, residual percentage of compound)” value in series [1] amounted to 100%. Also, the IC50 on Mdm2/p53 binding is 3.6 nM. Moreover, in series [2], the GI50 was in the range of 400 to 2500 nM.
For `CC(C)C1=C(C(=O)N2C[C@H](F)C[C@H]2C(=O)N2CC3(CC3)NC[C@@H]2C(=O)O)SC2=N[C@@](C)(c3ccc(Cl)nc3)[C@@H](c3ccc(Cl)c(F)c3)N21.Cl.Cl` [Example 13, (6R)-7-[(4R)-1-{[(5R,6S)-5-(4-chloro-3-fluorophenyl)-6-(6-chloropyridin-3-yl)-3-isopropyl-6-methyl-5,6-dihydroimidazo[2,1-b][1,3]thiazol-2-yl]carbonyl}-4-fluoro-L-prolyl]-4,7-diazaspiro[2.5]octane-6-carboxylic acid dihydrochloride], in series [1], the “MS (human) % (metabolic stability, residual percentage of compound)” value came out at 100%. In addition, on Mdm2/p53 binding, the 50% inhibitory concentration (IC50) came to 5.4 nM. The GI50 in series [2] fell in the range of 400 to 2500 nM.
Turning to `CC[C@H]1CNC2(CC2)CN1C(=O)[C@@H]1C[C@@H](F)CN1C(=O)C1=C(C(C)C)N2C(=N[C@@](C)(c3ccc(Cl)cc3)[C@H]2c2ccc(Cl)cc2)S1` [Example 21], in series [1], the “MS (human) % (metabolic stability, residual percentage of compound)” value is reported as 96%. This compound also registered a 50% inhibitory concentration (IC50) at Mdm2/p53 binding of 2.2 nM. Further, the GI50 in series [2] was < 400 nM.
Take `CC(C)C1=C(C(=O)N2C[C@H](F)C[C@H]2C(=O)N2CCNC3(CC3)C2)SC2=N[C@@](C)(c3ccc(Cl)nc3)[C@@H](c3ccc(Cl)cc3)N21` [Example 26]: the “MS (human) % (metabolic stability, residual percentage of compound)” value in series [1] came to 57%. For the same compound, the IC50 on Mdm2/p53 binding was found to be 2.7 nM. Besides, the GI50 in series [2] was 400 to 2500 nM.
Consider `CC(C)C1=C(C(=O)N2C[C@H](F)C[C@H]2C(=O)N2CC3(CC3)NC[C@H]2CO)SC2=N[C@@](C)(c3ccc(Cl)nc3)[C@@H](c3ccc(Cl)c(F)c3)N21` [Example 12, {(6S)-7-[(4R)-1-{[(5R,6S)-5-(4-chloro-3-fluorophenyl)-6-(6-chloropyridin-3-yl)-3-isopropyl-6-methyl-5,6-dihydroimidazo[2,1-b][1,3]thiazol-2-yl]carbonyl}-4-fluoro-L-prolyl]-4,7-diazaspiro[2.5]oct-6-yl}methanol], for which the “MS (human) % (metabolic stability, residual percentage of compound)” value in series [1] is 69%. For the same compound, the concentration for half-maximal inhibition (IC50) on Mdm2/p53 binding came out at 5 nM. In series [2], the GI50 was in the range of 400 to 2500 nM.
The like results for `CC(C)C1=C(C(=O)N2C[C@H](F)C[C@H]2C(=O)N2CC3(CC3)N(C)C[C@@H]2C)SC2=N[C@@](C)(c3ccc(Cl)nc3)[C@@H](c3ccc(Cl)c(F)c3)N21` [Example 16] were, in that order, 56%, 2.3 nM and < 400 nM.
In the case of `CC(C)C1=C(C(=O)N2C[C@H](F)C[C@H]2C(=O)N2CCN(C)C3(CC3)C2)SC2=N[C@@](C)(c3ccc(Cl)nc3)[C@@H](c3ccc(Cl)c(F)c3)N21` [Example 15, 7-[(4R)-1-{[(5R,6S)-5-(4-chloro-3-fluorophenyl)-6-(6-chloropyridin-3-yl)-3-isopropyl-6-methyl-5,6-dihydroimidazo[2,1-b][1,3]thiazol-2-yl]carbonyl}-4-fluoro-L-prolyl]-4-methyl-4,7-diazaspiro[2.5]octane], the “MS (human) % (metabolic stability, residual percentage of compound)” value in series [1] was determined as 44%. The IC50 on Mdm2/p53 binding was 2.7 nM. Also, in series [2], the GI50 is < 400 nM.
Take `CC(C)C1=C(C(=O)N2C[C@H](F)C[C@H]2C(=O)N2CCNC3(CC3)C2)SC2=N[C@@](C)(c3ccc(Cl)nc3)[C@@H](c3ccc(Cl)c(F)c3)N21` [Example 1, 7-[(4R)-1-{[(5R,6S)-5-(4-chloro-3-fluorophenyl)-6-(6-chloropyridin-3-yl)-3-isopropyl-6-methyl-5,6-dihydroimidazo[2,1-b][1,3]thiazol-2-yl]carbonyl}-4-fluoro-L-prolyl]-4,7-diazaspiro[2.5]octane]: in series [1], the “MS (human) % (metabolic stability, residual percentage of compound)” value turned out to be 77%. This compound yielded a 50% inhibitory concentration (IC50) on Mdm2/p53 binding of 2.8 nM. Besides, in series [2], the GI50 was < 400 nM.
